Experiments:
Assay in all cases: relative viability (nuclei count vs DMSO), 5 days (fraction); higher = more cells survive
[1] = tested on: HARA
How it was run: (§1)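 Medians of duplicate plates are given as relative viability. That measure is the nuclei count in treated wells divided by the count in vehicle wells. Counts were taken on 4× images of lung cancer cell lines in 1536-well plates, 5 days after pin-tool dosing the day after seeding with one drug alone or a fixed anchor-drug dose plus five library-drug doses (not always all listed) in √10 steps.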

[2] = tested on: HCC-15
How it was run: as §1

[3] = tested on: HOP-62
How it was run: as §1

[4] = tested on: NCI-H1355
How it was run: as §1

[5] = tested on: NCI-H1395
How it was run: as §1

[6] = tested on: NCI-H1734
How it was run: as §1

[7] = tested on: NCI-H1755
How it was run: as §1

[8] = tested on: NCI-H1792
How it was run: as §1

[9] = tested on: NCI-H1793
How it was run: as §1

[10] = tested on: NCI-H1993
How it was run: as §1

[11] = tested on: NCI-H2170
How it was run: as §1

[12] = tested on: NCI-H2347
How it was run: as §1

[13] = tested on: NCI-H358
How it was run: as §1

[14] = tested on: NCI-H522
How it was run: as §1

[15] = tested on: NCI-H647
How it was run: as §1

[16] = tested on: NCI-H838
How it was run: as §1

O=c1cc(-c2cccc3c2Sc2ccccc2S3)oc(N2CCOCC2)c1 + NC(=O)Nc1cc(-c2cccc(F)c2)sc1C(=O)N[C@H]1CCCNC1 [AZD7762] (partner 0.2 µM)
relative viability ([1]; first compound 0.08 µM): 0.234 | relative viability ([1]; first compound 0.253 µM): 0.327 | relative viability ([1]; first compound 0.8 µM): 0.364 | relative viability ([1]; first compound 2.53 µM): 0.208 | relative viability ([1]; first compound 8 µM): 0.256 | relative viability ([2]; first compound 0.08 µM): 1.22 | relative viability ([2]; first compound 0.253 µM): 1.51 | relative viability ([2]; first compound 0.8 µM): 1.18 | relative viability ([2]; first compound 2.53 µM): 1.18 | relative viability ([2]; first compound 8 µM): 1.28 | relative viability ([3]; first compound 0.08 µM): 0.477 | relative viability ([3]; first compound 0.253 µM): 0.61 | relative viability ([3]; first compound 0.8 µM): 0.869 | relative viability ([3]; first compound 2.53 µM): 0.493 | relative viability ([3]; first compound 8 µM): 0.944 | relative viability ([4]; first compound 0.08 µM): 0.703 | relative viability ([4]; first compound 0.253 µM): 0.915 | relative viability ([4]; first compound 0.8 µM): 0.743 | relative viability ([4]; first compound 2.53 µM): 0.554 | relative viability ([4]; first compound 8 µM): 0.756 | relative viability ([5]; first compound 0.08 µM): 0.384 | relative viability ([5]; first compound 0.253 µM): 0.395 | relative viability ([5]; first compound 0.8 µM): 0.378 | relative viability ([5]; first compound 2.53 µM): 0.373 | relative viability ([5]; first compound 8 µM): 0.418 | relative viability ([6]; first compound 0.08 µM): 0.512 | relative viability ([6]; first compound 0.253 µM): 0.541 | relative viability ([6]; first compound 0.8 µM): 0.581 | relative viability ([6]; first compound 8 µM): 0.63 | relative viability ([7]; first compound 0.08 µM): 0.535 | relative viability ([7]; first compound 0.253 µM): 0.453 | relative viability ([7]; first compound 0.8 µM): 0.439 | relative viability ([7]; first compound 2.53 µM): 0.566 | relative viability ([7]; first compound 8 µM): 0.418 | relative viability ([8]; first compound 0.08 µM): 0.541 | relative viability ([8]; first compound 0.253 µM): 0.632 | relative viability ([8]; first compound 0.8 µM): 0.549 | relative viability ([8]; first compound 2.53 µM): 0.55 | relative viability ([8]; first compound 8 µM): 0.583 | relative viability ([9]; first compound 0.08 µM): 0.299 | relative viability ([9]; first compound 0.253 µM): 0.48 | relative viability ([9]; first compound 0.8 µM): 0.458 | relative viability ([9]; first compound 2.53 µM): 0.182 | relative viability ([9]; first compound 8 µM): 0.377 | relative viability ([10]; first compound 0.08 µM): 0.707 | relative viability ([10]; first compound 0.253 µM): 0.763 | relative viability ([10]; first compound 0.8 µM): 0.556 | relative viability ([10]; first compound 2.53 µM): 0.749 | relative viability ([10]; first compound 8 µM): 0.728 | relative viability ([11]; first compound 0.08 µM): 0.842 | relative viability ([11]; first compound 0.253 µM): 0.868 | relative viability ([11]; first compound 0.8 µM): 0.996 | relative viability ([11]; first compound 2.53 µM): 0.792 | relative viability ([11]; first compound 8 µM): 0.804 | relative viability ([12]; first compound 0.08 µM): 0.738 | relative viability ([12]; first compound 0.253 µM): 0.798 | relative viability ([12]; first compound 0.8 µM): 0.799 | relative viability ([12]; first compound 2.53 µM): 0.749 | relative viability ([12]; first compound 8 µM): 0.701 | relative viability ([13]; first compound 0.08 µM): 0.456 | relative viability ([13]; first compound 0.253 µM): 0.581 | relative viability ([13]; first compound 0.8 µM): 0.523 | relative viability ([13]; first compound 2.53 µM): 0.501 | relative viability ([13]; first compound 8 µM): 0.534 | relative viability ([14]; first compound 0.08 µM): 0.821 | relative viability ([14]; first compound 0.253 µM): 0.926 | relative viability ([14]; first compound 0.8 µM): 0.864 | relative viability ([14]; first compound 2.53 µM): 0.654 | relative viability ([14]; first compound 8 µM): 0.813 | relative viability ([15]; first compound 0.08 µM): 0.545 | relative viability ([15]; first compound 0.253 µM): 0.422 | relative viability ([15]; first compound 0.8 µM): 0.456 | relative viability ([15]; first compound 2.53 µM): 0.197 | relative viability ([15]; first compound 8 µM): 0.49 | relative viability ([16]; first compound 0.08 µM): 0.933 | relative viability ([16]; first compound 0.253 µM): 1.09 | relative viability ([16]; first compound 0.8 µM): 0.898 | relative viability ([16]; first compound 2.53 µM): 0.941 | relative viability ([16]; first compound 8 µM): 0.98

— the supplement of paper PMC10307832
